Reference: ChEMBL document CHEMBL5236560, “Structure-Based Discovery of Potent CARM1 Inhibitors for Solid Tumor and Cancer Immunology Therapy” (J Med Chem, 2021)

Tests used:
[1] = target: Protein arginine N-methyltransferase 3 (Homo sapiens, UniProt O60678); assay: Inhibition of PRMT3 (unknown origin) incubated for 15 mins measured after 60 min by AlphaLISA assay
[2] = target: Protein arginine N-methyltransferase 1 (Homo sapiens, UniProt Q99873); assay: Inhibition of PRMT1 (unknown origin) incubated for 15 mins measured after 60 min by AlphaLISA assay
[3] = tested on: BT-549; assay: Antiproliferative activity against human BT-549 cells assessed as cell growth inhibition incubated for 6 days by SRB assay; type: functional, cell-based; settings: BT-549, 144 h
[4] = tested on: A-375; assay: Antiproliferative activity against human A-375 cells assessed as cell growth inhibition incubated for 6 days by SRB assay; type: functional, cell-based; settings: A-375, 144 h
[5] = target: Protein arginine N-methyltransferase 6 (Homo sapiens, UniProt Q96LA8); assay: Inhibition of PRMT6 (unknown origin) incubated for 15 mins measured after 60 min by AlphaLISA assay
[6] = target: Protein arginine N-methyltransferase 8 (Homo sapiens, UniProt Q9NR22); assay: Inhibition of PRMT8 (unknown origin) incubated for 15 mins measured after 60 min by AlphaLISA assay
[7] = target: Protein arginine N-methyltransferase 5 (Homo sapiens, UniProt O14744); assay: Inhibition of PRMT5 (unknown origin) incubated for 15 mins measured after 60 min by AlphaLISA assay
[8] = target: T1, Protein arginine N-methyltransferase 7 (Homo sapiens, UniProt Q9NVM4); assay: Inhibition of PRMT7 (unknown origin) by radioisotope based assay
T1 sequence (Q9NVM4 whole entry): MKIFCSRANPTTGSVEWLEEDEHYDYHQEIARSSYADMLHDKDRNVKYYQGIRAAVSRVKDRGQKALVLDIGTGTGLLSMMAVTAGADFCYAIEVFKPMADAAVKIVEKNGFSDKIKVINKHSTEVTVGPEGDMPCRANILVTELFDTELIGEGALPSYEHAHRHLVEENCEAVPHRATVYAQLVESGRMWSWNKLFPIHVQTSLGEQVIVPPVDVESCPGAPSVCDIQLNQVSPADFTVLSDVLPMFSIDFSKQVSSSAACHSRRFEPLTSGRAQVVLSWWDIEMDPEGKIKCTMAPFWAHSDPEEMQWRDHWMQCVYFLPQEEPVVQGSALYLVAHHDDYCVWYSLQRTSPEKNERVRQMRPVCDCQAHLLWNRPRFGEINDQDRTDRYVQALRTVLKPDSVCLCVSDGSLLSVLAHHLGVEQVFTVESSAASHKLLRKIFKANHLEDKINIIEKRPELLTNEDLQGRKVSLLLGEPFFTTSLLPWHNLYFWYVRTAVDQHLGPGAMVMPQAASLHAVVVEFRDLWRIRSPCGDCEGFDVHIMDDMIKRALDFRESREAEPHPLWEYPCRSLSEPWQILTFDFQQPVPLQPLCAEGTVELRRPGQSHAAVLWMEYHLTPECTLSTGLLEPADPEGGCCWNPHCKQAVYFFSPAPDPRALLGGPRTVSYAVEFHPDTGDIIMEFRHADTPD

[9] = tested on: MDA-MB-453; assay: Antiproliferative activity against human MDA-MB-453 cells assessed as cell growth inhibition incubated for 6 days by SRB assay; type: functional, cell-based; settings: MDA-MB-453, 144 h
[10] = tested on: SMMC-7721; assay: Antiproliferative activity against human SMMC-7721 cells assessed as cell growth inhibition incubated for 6 days by SRB assay; type: functional, cell-based; settings: SMMC-7721, 144 h
[11] = tested on: ASPC1; assay: Antiproliferative activity against human ASPC1 cells assessed as cell growth inhibition incubated for 6 days by SRB assay; type: functional, cell-based; settings: ASPC1, 144 h
[12] = tested on: BT-549; assay: Induction of apoptosis in human BT-549 cells at 15 uM measured after 96 hrs by Annexin V-FITC/PI staining based flow cytometric analysis (reference value: 9.7 %); type: functional
[13] = tested on: A-375; assay: Induction of apoptosis in human A-375 cells at 15 uM measured after 96 hrs by Annexin V-FITC/PI staining based flow cytometric analysis (reference value: 5.6 %); type: functional
[14] = tested on: ASPC1; assay: Induction of apoptosis in human ASPC1 cells at 15 uM measured after 96 hrs by Annexin V-FITC/PI staining based flow cytometric analysis (reference value: 6.1 %); type: functional
[15] = tested on: BT-549; assay: Antitumor activity against human BT-549 cells xenografted in po dosed nude mouse assessed as tumor growth inhibition at 75 mg/kg administered once daily measured after 18 days relative to control; type: functional; settings: BT-549, 432 h, time 18 day, read-out: TGI
[16] = tested on: BT-549; assay: Antitumor activity against human BT-549 cells xenografted in po dosed nude mouse assessed as tumor growth inhibition at 125 mg/kg administered once daily measured after 18 days relative to control; type: functional; settings: BT-549, 432 h, time 18 day, read-out: TGI
[17] = tested on: A-375; assay: Antitumor activity against human A-375 cells xenografted in po dosed nude mouse assessed as tumor growth inhibition at 100 mg/kg administered once daily measured after 21 days relative to control; type: functional; settings: A-375, 504 h, time 21 day, read-out: TGI
[18] = tested on: MC-38; assay: Antitumor activity against mouse MC38 cells implanted in po dosed BALB/c nude mouse assessed as tumor growth inhibition at 100 mg/kg administered once daily measured after 18 days relative to control; type: functional; settings: MC-38, 432 h, time 18 day, read-out: TGI
[19] = tested on: MC-38; assay: Antitumor activity against mouse MC38 cells implanted in po dosed C57BL/6J mouse assessed as tumor growth inhibition at 100 mg/kg administered once daily measured after 32 days relative to control; type: functional; settings: MC-38, 768 h, time 32 day, read-out: TGI
[20] = Toxicity in po dosed nude mouse xenografted with human BT-549 cells assessed as change in body weight at 75 to 125 mg/kg administered once daily measured after 18 days; type: organism-based; settings: in vivo, 432 h, dose 75-125 mg/kg, time 18 day
[21] = Toxicity in po dosed nude mouse xenografted with human A-375 cells assessed as change in body weight at 100 mg/kg administered once daily measured after 21 days; type: organism-based; settings: in vivo, 504 h, time 21 day

Chain of Protein arginine N-methyltransferase 3 (O60678 whole entry): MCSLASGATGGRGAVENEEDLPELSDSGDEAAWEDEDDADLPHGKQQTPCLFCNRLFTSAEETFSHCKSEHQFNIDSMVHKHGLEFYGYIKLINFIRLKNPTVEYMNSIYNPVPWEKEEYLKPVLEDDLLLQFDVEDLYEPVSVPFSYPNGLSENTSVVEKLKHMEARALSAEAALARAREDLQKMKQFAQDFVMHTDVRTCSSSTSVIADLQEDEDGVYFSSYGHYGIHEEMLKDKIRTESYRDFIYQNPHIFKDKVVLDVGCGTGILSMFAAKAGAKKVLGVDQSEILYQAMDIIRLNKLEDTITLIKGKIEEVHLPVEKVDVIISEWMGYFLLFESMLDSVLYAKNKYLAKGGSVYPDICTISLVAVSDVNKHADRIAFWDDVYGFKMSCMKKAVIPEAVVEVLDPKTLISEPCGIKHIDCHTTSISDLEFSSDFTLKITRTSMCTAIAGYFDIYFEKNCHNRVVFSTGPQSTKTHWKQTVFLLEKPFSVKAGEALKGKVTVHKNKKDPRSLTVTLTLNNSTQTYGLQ
Chain of Protein arginine N-methyltransferase 6 (Q96LA8 whole entry): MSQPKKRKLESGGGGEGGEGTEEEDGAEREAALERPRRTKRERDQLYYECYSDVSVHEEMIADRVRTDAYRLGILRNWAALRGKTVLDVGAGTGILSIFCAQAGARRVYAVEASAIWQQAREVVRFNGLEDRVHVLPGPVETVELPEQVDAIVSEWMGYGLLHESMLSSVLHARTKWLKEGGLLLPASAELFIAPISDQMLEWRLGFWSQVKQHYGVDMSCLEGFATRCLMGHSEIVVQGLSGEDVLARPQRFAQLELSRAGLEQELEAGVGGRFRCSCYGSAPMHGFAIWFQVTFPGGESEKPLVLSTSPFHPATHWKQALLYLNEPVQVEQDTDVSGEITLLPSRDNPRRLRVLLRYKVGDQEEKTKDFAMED
Chain of Protein arginine N-methyltransferase 8 (Q9NR22 whole entry): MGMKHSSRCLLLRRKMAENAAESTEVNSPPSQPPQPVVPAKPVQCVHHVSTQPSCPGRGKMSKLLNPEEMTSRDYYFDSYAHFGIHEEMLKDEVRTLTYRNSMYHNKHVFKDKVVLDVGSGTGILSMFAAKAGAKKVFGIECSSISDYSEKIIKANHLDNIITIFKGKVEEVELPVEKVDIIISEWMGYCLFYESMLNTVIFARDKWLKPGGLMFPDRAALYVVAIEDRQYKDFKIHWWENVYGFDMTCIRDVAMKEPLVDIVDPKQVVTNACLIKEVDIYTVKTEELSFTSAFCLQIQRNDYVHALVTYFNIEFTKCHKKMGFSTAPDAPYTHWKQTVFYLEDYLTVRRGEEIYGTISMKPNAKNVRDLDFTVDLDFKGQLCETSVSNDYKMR
Chain of Protein arginine N-methyltransferase 1 (Q99873 whole entry): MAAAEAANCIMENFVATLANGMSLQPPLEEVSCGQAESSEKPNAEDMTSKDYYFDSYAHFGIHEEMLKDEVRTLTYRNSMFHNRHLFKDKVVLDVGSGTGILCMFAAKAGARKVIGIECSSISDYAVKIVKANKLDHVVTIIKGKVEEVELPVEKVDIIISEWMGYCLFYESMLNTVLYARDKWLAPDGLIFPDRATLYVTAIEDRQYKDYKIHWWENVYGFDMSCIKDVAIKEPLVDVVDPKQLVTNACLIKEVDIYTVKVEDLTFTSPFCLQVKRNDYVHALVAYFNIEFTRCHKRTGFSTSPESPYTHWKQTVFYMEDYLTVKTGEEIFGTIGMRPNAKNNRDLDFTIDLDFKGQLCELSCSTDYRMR
Chain of Protein arginine N-methyltransferase 5 (O14744 whole entry): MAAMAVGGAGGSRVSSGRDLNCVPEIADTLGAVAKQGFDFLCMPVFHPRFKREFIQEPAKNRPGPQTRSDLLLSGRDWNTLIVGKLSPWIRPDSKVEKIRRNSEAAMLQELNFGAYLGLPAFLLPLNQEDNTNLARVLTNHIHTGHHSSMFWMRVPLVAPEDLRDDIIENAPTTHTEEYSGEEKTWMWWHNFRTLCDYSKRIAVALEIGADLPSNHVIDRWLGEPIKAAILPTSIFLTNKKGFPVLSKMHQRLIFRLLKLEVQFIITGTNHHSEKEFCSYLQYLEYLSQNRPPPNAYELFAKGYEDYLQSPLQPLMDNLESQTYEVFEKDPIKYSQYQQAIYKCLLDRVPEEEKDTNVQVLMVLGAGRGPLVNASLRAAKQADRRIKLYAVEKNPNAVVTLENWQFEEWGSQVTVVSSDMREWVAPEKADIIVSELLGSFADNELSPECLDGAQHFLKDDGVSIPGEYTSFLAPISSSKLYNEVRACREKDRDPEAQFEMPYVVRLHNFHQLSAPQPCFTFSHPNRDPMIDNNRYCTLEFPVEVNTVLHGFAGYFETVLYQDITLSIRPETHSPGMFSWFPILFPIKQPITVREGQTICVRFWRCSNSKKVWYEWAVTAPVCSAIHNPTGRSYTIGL

IC50 [1]: > 1000 nM
IC50 [2]: > 1000 nM
IC50 [3]: 8.8 µM
IC50 [4]: 5.9 µM
IC50 [5]: 490 nM
IC50 [6]: 920 nM
IC50 [7]: > 50 µM
IC50 [8]: > 50 µM
IC50 [9]: 5.7 µM
IC50 [10]: 5.5 µM
IC50 [11]: 12.3 µM
Structure (SMILES): CNCCNCc1cccc(-c2nc(Nc3ccccc3)c(C)c(-c3c(C)noc3C)n2)c1
Activity [12]: 46.1%
Activity [13]: 44%
Activity [14]: 17.2%
inhibition in vivo at 75 mg/kg [15]: 38%
inhibition in vivo at 125 mg/kg [16]: 61.5%
inhibition in vivo at 100 mg/kg [17]: 69%
inhibition in vivo at 100 mg/kg [18]: 23.3%
inhibition in vivo at 100 mg/kg [19]: 79.6%
Activity [20]: Non-Toxic
Activity [21]: Non-Toxic
